In patent US10040781B2, “Tank-binding kinase inhibitor compounds” (Gilead Sciences, Inc., priority 2014, dated 2018):

Target: TBK1 (Homo sapiens (Human), UniProt Q9UHD2)
Assay: TBK1 TR-FRET enzymatic assay;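 further: phosphorylation of a biotinylated Ser/Thr peptide by purified full-length recombinant TBK1, read by TR-FRET after 240 min at 25 °C, IC50 is the geometric mean of at least four runs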
Details: not given

Chain of TBK1 (Q9UHD2 whole entry): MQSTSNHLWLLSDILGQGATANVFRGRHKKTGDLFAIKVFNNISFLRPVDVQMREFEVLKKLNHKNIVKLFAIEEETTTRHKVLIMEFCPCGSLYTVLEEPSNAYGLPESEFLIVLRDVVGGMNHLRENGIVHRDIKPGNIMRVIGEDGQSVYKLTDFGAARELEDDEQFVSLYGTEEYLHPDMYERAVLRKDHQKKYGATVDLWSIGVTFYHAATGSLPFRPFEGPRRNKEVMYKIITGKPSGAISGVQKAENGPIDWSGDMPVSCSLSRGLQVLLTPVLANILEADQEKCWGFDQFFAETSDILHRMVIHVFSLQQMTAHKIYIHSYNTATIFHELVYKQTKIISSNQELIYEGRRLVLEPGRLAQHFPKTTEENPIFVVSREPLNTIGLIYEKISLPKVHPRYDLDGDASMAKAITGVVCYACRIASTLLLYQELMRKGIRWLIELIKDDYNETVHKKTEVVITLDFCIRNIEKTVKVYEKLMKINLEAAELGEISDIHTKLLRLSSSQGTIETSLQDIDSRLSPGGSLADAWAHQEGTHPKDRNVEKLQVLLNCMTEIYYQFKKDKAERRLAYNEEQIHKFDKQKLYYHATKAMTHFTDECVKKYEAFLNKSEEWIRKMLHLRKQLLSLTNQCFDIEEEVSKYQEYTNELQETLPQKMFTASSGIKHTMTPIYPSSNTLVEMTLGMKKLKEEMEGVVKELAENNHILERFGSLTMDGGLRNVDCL

SMILES | IC50
N#Cc1cc(-c2ncnc(Nc3ccc(C4CCNCC4)cc3)n2)ccc1O[C@H]1CCCC[C@H]1F (racemic) [Example 292, rac-2-(((1S,2R)-2-fluorocyclohexyl)oxy)-5-(4-((4-(piperidin-4-yl)phenyl)amino)-1,3,5-triazin-2-yl)benzonitrile] | 0.006 µM
C[C@H](O)C(=O)N1CC[C@@H](Oc2ccc(-c3ncnc(Nc4ccc(N5CCN(C6COC6)CC5)cc4)n3)cc2C#N)C1 [Example 88, 2-(((R)-1-((S)-2-hydroxypropanoyl)pyrrolidin-3-yl)oxy)-5-(4-((4-(4-(oxetan-3-yl)piperazin-1-yl)phenyl)amino)-1,3,5-triazin-2-yl)benzonitrile] | 0.026 µM
C[C@@H](O)C(=O)N1CC[C@@H](Oc2ccc(-c3ncnc(Nc4ccc(N5CCN(C6COC6)CC5)cc4)n3)cc2C#N)C1 [Example 91, 2-(((R)-1-((R)-2-hydroxypropanoyl)pyrrolidin-3-yl)oxy)-5-(4-((4-(4-(oxetan-3-yl)piperazin-1-yl)phenyl)amino)-1,3,5-triazin-2-yl)benzonitrile] | 0.145 µM
N#Cc1cc(-c2ncnc(Nc3ccc(N4CCN(C5COC5)CC4)cc3)n2)ccc1O[C@@H]1CN(C(=O)CO)C[C@@H]1F [Example 101, 2-(((3R,4S)-4-fluoro-1-(2-hydroxyacetyl)pyrrolidin-3-yl)oxy)-5-(4-((4-(4-(oxetan-3-yl)piperazin-1-yl)phenyl)amino)-1,3,5-triazin-2-yl)benzonitrile] | 0.014 µM
N#Cc1cc(-c2ncnc(Nc3ccc4c(c3)OC(F)(F)O4)n2)ccc1OC1CCOCC1 [Example 275, 5-(4-((2,2-difluorobenzo[d][1,3]dioxol-5-yl)amino)-1,3,5-triazin-2-yl)-2-((tetrahydro-2H-pyran-4-yl)oxy)benzonitrile] | 0.115 µM
N#Cc1cc(-c2ncnc(Nc3ccc(N4CCN(C5CCOCC5)CC4)cc3)n2)ccc1O[C@H]1CCN(C(=O)CO)C[C@H]1F [Example 306, 2-(((3R,4S)-3-fluoro-1-(2-hydroxyacetyl)piperidin-4-yl)oxy)-5-(4-((4-(4-(tetrahydro-2H-pyran-4-yl)piperazin-1-yl)phenyl)amino)-1,3,5-triazin-2-yl)benzonitrile] | 0.002 µM
C[C@H](O)C(=O)N1CC[C@H](Oc2ccc(-c3ncnc(Nc4ccc(C5CCN(C6COC6)CC5)cc4)n3)cc2C#N)[C@H](F)C1 [Example 311, 2-(((3R,4S)-3-fluoro-1-((S)-2-hydroxypropanoyl)piperidin-4-yl)oxy)-5-(4-((4-(1-(oxetan-3-yl)piperidin-4-yl)phenyl)amino)-1,3,5-triazin-2-yl)benzonitrile] | 0.003 µM

Target: hJAK2 (Homo sapiens (Human), UniProt O60674)
Assay: hJAK2 LANCE TR-FRET enzymatic assay
Assay type: biochemical
Details: read-out: JAK2 IC50

Chain of hJAK2 (O60674 whole entry): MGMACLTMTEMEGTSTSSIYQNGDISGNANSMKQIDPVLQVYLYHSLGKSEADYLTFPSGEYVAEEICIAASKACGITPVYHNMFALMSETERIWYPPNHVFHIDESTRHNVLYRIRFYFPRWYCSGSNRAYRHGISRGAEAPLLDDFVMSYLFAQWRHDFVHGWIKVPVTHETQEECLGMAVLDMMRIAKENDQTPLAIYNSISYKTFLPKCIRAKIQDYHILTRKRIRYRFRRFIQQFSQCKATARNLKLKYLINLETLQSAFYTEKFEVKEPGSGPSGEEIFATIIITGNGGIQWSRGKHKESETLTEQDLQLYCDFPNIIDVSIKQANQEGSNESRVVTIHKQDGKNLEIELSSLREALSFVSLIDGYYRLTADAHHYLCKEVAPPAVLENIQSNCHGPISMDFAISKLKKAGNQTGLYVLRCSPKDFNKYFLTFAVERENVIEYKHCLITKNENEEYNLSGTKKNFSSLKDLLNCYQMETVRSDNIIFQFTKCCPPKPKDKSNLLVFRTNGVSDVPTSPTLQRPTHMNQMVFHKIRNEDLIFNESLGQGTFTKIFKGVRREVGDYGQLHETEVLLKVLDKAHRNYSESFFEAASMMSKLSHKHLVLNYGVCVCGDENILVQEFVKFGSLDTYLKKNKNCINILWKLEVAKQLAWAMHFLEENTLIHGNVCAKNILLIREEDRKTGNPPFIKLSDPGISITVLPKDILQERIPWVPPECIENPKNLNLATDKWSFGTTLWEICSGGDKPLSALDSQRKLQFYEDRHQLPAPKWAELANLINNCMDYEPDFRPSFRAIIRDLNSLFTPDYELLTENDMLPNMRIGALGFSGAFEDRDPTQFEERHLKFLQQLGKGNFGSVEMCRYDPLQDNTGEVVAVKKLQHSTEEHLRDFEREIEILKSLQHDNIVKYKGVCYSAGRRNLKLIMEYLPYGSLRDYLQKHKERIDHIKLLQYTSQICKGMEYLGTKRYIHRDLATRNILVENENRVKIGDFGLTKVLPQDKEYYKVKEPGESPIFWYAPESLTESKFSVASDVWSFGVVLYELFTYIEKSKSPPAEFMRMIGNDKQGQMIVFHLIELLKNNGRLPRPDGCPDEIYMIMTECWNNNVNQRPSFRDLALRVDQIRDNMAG

SMILES | IC50
N#Cc1cc(-c2ncnc(Nc3ccc(N4CCN(C5COC5)CC4)cc3)n2)ccc1OC1CCN(C(=O)CO)CC1(F)F (racemic) [Example 151, 2-((3,3-difluoro-1-(2-hydroxyacetyl)piperidin-4-yl)oxy)-5-(4-((4-(4-(oxetan-3-yl)piperazin-1-yl)phenyl)amino)-1,3,5-triazin-2-yl)benzonitrile] | 0.122 µM
CC1(C)CN(C(=O)CO)CCC1Oc1ccc(-c2ncnc(Nc3ccc(N4CCN(C5COC5)CC4)cc3)n2)cc1C#N (racemic) [Example 174, 2-((1-(2-hydroxyacetyl)-3,3-dimethylpiperidin-4-yl)oxy)-5-(4-((4-(4-(oxetan-3-yl)piperazin-1-yl)phenyl)amino)-1,3,5-triazin-2-yl)benzonitrile] | 0.16 µM
N#Cc1cc(-c2ncnc(Nc3ccc(N4CCN(C5COC5)CC4)cc3)n2)ccc1O[C@H]1CCN(C(=O)CO)CC1(F)F (single isomer, unassigned) [Example 152] | 0.075 µM
N#Cc1cc(-c2ncnc(Nc3ccc(N4CCN(C5COC5)CC4)cc3)n2)ccc1O[C@@H]1CCN(C(=O)CO)CC1(F)F (single isomer, unassigned) [Example 153] | 0.056 µM
CC1(C)CN(C(=O)CO)CC[C@@H]1Oc1ccc(-c2ncnc(Nc3ccc(N4CCN(C5COC5)CC4)cc3)n2)cc1C#N (single isomer, unassigned) [Example 175] | 0.397 µM
CC1(C)CN(C(=O)CO)CC[C@H]1Oc1ccc(-c2ncnc(Nc3ccc(N4CCN(C5COC5)CC4)cc3)n2)cc1C#N (single isomer, unassigned) [Example 176] | 0.133 µM
COc1cc(Nc2ncnc(-c3ccc(OC4CCOCC4)c(C#N)c3)n2)ccc1N1CCN(C)CC1 [Example 4, 5-(4-((3-methoxy-4-(4-methylpiperazin-1-yl)phenyl)amino)-1,3,5-triazin-2-yl)-2-((tetrahydro-2H-pyran-4-yl)oxy)benzonitrile] | 0.053 µM
CN1CCN(c2ccc(Nc3ncnc(-c4ccc(OC5CCOCC5)c(C#N)c4)n3)cc2)CC1 [Example 12, 5-(4-((4-(4-methylpiperazin-1-yl)phenyl)amino)-1,3,5-triazin-2-yl)-2-((tetrahydro-2H-pyran-4-yl)oxy)benzonitrile] | 0.162 µM
Cc1n[nH]c(C)c1C(=O)N1CC[C@H](Oc2ccc(-c3ncnc(Nc4ccc(N5CCN(C6COC6)CC5)cc4)n3)cc2C#N)[C@H](F)C1 [Example 135, 2-(((3R,4S)-1-(3,5-dimethyl-1H-pyrazole-4-carbonyl)-3-fluoropiperidin-4-yl)oxy)-5-(4-((4-(4-(oxetan-3-yl)piperazin-1-yl)phenyl)amino)-1,3,5-triazin-2-yl)benzonitrile] | 0.212 µM
N#Cc1cc(-c2ncnc(Nc3ccc(N4CCN(C5COC5)CC4)cc3)n2)ccc1OC1CCN(C(=O)c2ncc[nH]2)CC1(F)F (stereo not drawn) [Example 163, 2-((3,3-difluoro-1-(1H-imidazole-2-carbonyl)piperidin-4-yl)oxy)-5-(4-((4-(4-(oxetan-3-yl)piperazin-1-yl)phenyl)amino)-1,3,5-triazin-2-yl)benzonitrile] | 0.248 µM
C[C@H](O)C(=O)N1CC[C@@H](Oc2ccc(-c3ncnc(Nc4ccc(N5CCN(C6COC6)CC5)cc4)n3)cc2C#N)[C@H](F)C1 [Example 234, 2-(((3R,4R)-3-fluoro-1-((S)-2-hydroxypropanoyl)piperidin-4-yl)oxy)-5-(4-((4-(4-(oxetan-3-yl)piperazin-1-yl)phenyl)amino)-1,3,5-triazin-2-yl)benzonitrile] | 0.669 µM
C[C@H](O)C(=O)N1CC[C@H](Oc2ccc(-c3ncnc(Nc4ccc(N5CCN(C6COC6)CC5)cc4)n3)cc2C#N)[C@H](F)C1 [Example 238, 2-(((3R,4S)-3-fluoro-1-((8)-2-hydroxypropanoyl)piperidin-4-yl)oxy)-5-(4-((4-(4-(oxetan-3-yl)piperazin-1-yl)phenyl)amino)-1,3,5-triazin-2-yl)benzonitrile] | 0.445 µM
N#Cc1cc(-c2ncnc(Nc3ccc(N4CCN(C5COC5)CC4)cc3)n2)ccc1O[C@H]1CCN(C(=O)c2cc(Cl)n[nH]2)C[C@H]1F [Example 324, 2-(((3R,4S)-1-(3-chloro-1H-pyrazole-5-carbonyl)-3-fluoropiperidin-4-yl)oxy)-5-(4-((4-(4-(oxetan-3-yl)piperazin-1-yl)phenyl)amino)-1,3,5-triazin-2-yl)benzonitrile] | 0.237 µM
C[C@H](O)C(=O)N1CC[C@H](Oc2ccc(-c3ncnc(Nc4ccc(N5CCN(C6COC6)CC5)c(Cl)c4)n3)cc2C#N)[C@H](F)C1 [Example 378, 5-(4-((3-chloro-4-(4-(oxetan-3-yl)piperazin-1-yl)phenyl)amino)-1,3,5-triazin-2-yl)-2-(((3R,4S)-3-fluoro-1-((S)-2-hydroxypropanoyl)piperidin-4-yl)oxy)benzonitrile] | 0.173 µM
C[C@H]1CN(C2COC2)CCN1c1ccc(Nc2ncnc(-c3ccc(O[C@H]4CCN(C(=O)[C@@H]5CCC(=O)N5)C[C@H]4F)c(C#N)c3)n2)cc1 [Example 381, 2-(((3R,4S)-3-fluoro-1-((S)-5-oxopyrrolidine-2-carbonyl)piperidin-4-yl)oxy)-5-(4-((4-((S)-2-methyl-4-(oxetan-3-yl)piperazin-1-yl)phenyl)amino)-1,3,5-triazin-2-yl)benzonitrile] | ≥ 1 µM
C[C@H](O)C(=O)N1CC[C@H](Oc2ccc(-c3ncnc(Nc4ccc(O[C@H]5CCN(C6COC6)C[C@H]5F)cc4)n3)cc2C#N)[C@H](F)C1 [Example 401, 2-(((3R,4S)-3-fluoro-1-((S)-2-hydroxypropanoyl)piperidin-4-yl)oxy)-5-(4-((4-(((3R,4S)-3-fluoro-1-(oxetan-3-yl)piperidin-4-yl)oxy)phenyl)amino)-1,3,5-triazin-2-yl)benzonitrile] | ≥ 1 µM
N#Cc1cc(-c2ncnc(Nc3ccc(N4CCN(C5COC5)CC4)cc3)n2)ccc1O[C@H]1CCN(C(=O)[C@@H]2C[C@@H](O)C(=O)N2)C[C@H]1F [Example 403, 2-(((3R,4S)-3-fluoro-1-((2S,4R)-4-hydroxy-5-oxopyrrolidine-2-carbonyl)piperidin-4-yl)oxy)-5-(4-((4-(4-(oxetan-3-yl)piperazin-1-yl)phenyl)amino)-1,3,5-triazin-2-yl)benzonitrile] | 0.858 µM
N#Cc1cc(-c2ncnc(Nc3ccc(N4CCN(C5COC5)CC4)cc3)n2)ccc1O[C@H]1CCN(C(=O)[C@@H]2C[C@@H](F)C(=O)N2)C[C@H]1F [Example 405, 2-(((3R,4S)-3-fluoro-1-((2S,4R)-4-fluoro-5-oxopyrrolidine-2-carbonyl)piperidin-4-yl)oxy)-5-(4-((4-(4-(oxetan-3-yl)piperazin-1-yl)phenyl)amino)-1,3,5-triazin-2-yl)benzonitrile] | ≥ 1 µM
N#Cc1cc(-c2ncnc(Nc3ccc(N4CCN(C5COC5)CC4)cc3)n2)ccc1O[C@H]1CCN(C(=O)[C@@H]2C[C@H](F)C(=O)N2)C[C@H]1F [Example 406, 2-(((3R,4S)-3-fluoro-1-((2S,4S)-4-fluoro-5-oxopyrrolidine-2-carbonyl)piperidin-4-yl)oxy)-5-(4-((4-(4-(oxetan-3-yl)piperazin-1-yl)phenyl)amino)-1,3,5-triazin-2-yl)benzonitrile] | ≥ 1 µM
N#Cc1cc(-c2ncnc(Nc3ccc(N4CCN(C5COC5)CC4)cc3)n2)ccc1O[C@H]1CCN(C(=O)[C@@H]2C[C@H](O)C(=O)N2)C[C@H]1F [Example 410, 2-(((3R,4S)-3-fluoro-1-((2S,4S)-4-hydroxy-5-oxopyrrolidine-2-carbonyl)piperidin-4-yl)oxy)-5-(4-((4-(4-(oxetan-3-yl)piperazin-1-yl)phenyl)amino)-1,3,5-triazin-2-yl)benzonitrile] | 0.45 µM
